Experimental data: patent US20100099561A1, “HETEROBICYCLIC ALKYLTHIO-BRIDGED ISOXAZOLINES” (E.I. DU PONT DE NEMOURS AND COMPANY, priority 2008, published 2010)

Legend:
Format in all cases: in vivo
[1] = tested on: barnyardgrass (Echinochloa crus-galli); experiment: Test A preemergence, barnyardgrass; conditions: 0 to 100 scale (0 no effect, 100 complete control)
Method in brief: (§1)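 Greenhouse pre/postemergence test, loam–sand soil. Postemergence plants one- to two-leaf, 2–10 cm. Visual injury rating ~10 d after treatment, 0–100 vs untreated.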

[2] = tested on: large crabgrass (Digitaria sanguinalis); experiment: Test A preemergence, large crabgrass; conditions: 0 to 100 scale (0 no effect, 100 complete control)
Method in brief: as §1

[3] = tested on: giant foxtail (Setaria faberi); experiment: Test A preemergence, giant foxtail; conditions: 0 to 100 scale (0 no effect, 100 complete control)
Method in brief: as §1

[4] = tested on: morningglory (Ipomoea spp.); experiment: Test A preemergence, morningglory; conditions: 0 to 100 scale (0 no effect, 100 complete control)
Method in brief: as §1

[5] = tested on: pigweed (Amaranthus retroflexus); experiment: Test A preemergence, pigweed; conditions: 0 to 100 scale (0 no effect, 100 complete control)
Method in brief: as §1

[6] = tested on: velvetleaf (Abutilon theophrasti); experiment: Test A preemergence, velvetleaf; conditions: 0 to 100 scale (0 no effect, 100 complete control)
Method in brief: as §1

[7] = tested on: wheat (Triticum aestivum); experiment: Test A preemergence, wheat; conditions: 0 to 100 scale (0 no effect, 100 complete control)
Method in brief: as §1

corn (Zea mays) [8] = experiment: Test A preemergence, corn; conditions: 0 to 100 scale (0 no effect, 100 complete control)
Method in brief: as §1

[9] = tested on: barnyardgrass (Echinochloa crus-galli); experiment: Test A postemergence, barnyardgrass; conditions: 0 to 100 scale (0 no effect, 100 complete control)
Method in brief: as §1

[10] = tested on: large crabgrass (Digitaria sanguinalis); experiment: Test A postemergence, large crabgrass; conditions: 0 to 100 scale (0 no effect, 100 complete control)
Method in brief: as §1

[11] = tested on: giant foxtail (Setaria faberi); experiment: Test A postemergence, giant foxtail; conditions: 0 to 100 scale (0 no effect, 100 complete control)
Method in brief: as §1

[12] = tested on: morningglory (Ipomoea spp.); experiment: Test A postemergence, morningglory; conditions: 0 to 100 scale (0 no effect, 100 complete control)
Method in brief: as §1

[13] = tested on: pigweed (Amaranthus retroflexus); experiment: Test A postemergence, pigweed; conditions: 0 to 100 scale (0 no effect, 100 complete control)
Method in brief: as §1

[14] = tested on: velvetleaf (Abutilon theophrasti); experiment: Test A postemergence, velvetleaf; conditions: 0 to 100 scale (0 no effect, 100 complete control)
Method in brief: as §1

[15] = tested on: wheat (Triticum aestivum); experiment: Test A postemergence, wheat; conditions: 0 to 100 scale (0 no effect, 100 complete control)
Method in brief: as §1

corn (Zea mays) [16] = experiment: Test A postemergence, corn; conditions: 0 to 100 scale (0 no effect, 100 complete control)
Method in brief: as §1

rice (Oryza sativa) = experiment: Test B flooded paddy test, rice; conditions: Flood, scale 0 to 100
Method in brief: (§2)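 Step one: raise plants to 2 leaves. Step two: flood pots 3 cm over the soil and apply compound into the water, keeping this depth. Step three: after 13–15 greenhouse days, score visually versus controls, 0–100, where 100 means complete control.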

[17] = tested on: umbrella sedge (Cyperus difformis); experiment: Test B flooded paddy test, umbrella sedge; conditions: Flood, scale 0 to 100
Method in brief: as §2

[18] = tested on: ducksalad (Heteranthera limosa); experiment: Test B flooded paddy test, ducksalad; conditions: Flood, scale 0 to 100
Method in brief: as §2

[19] = tested on: barnyardgrass (Echinochloa crus-galli); experiment: Test B flooded paddy test, barnyardgrass; conditions: Flood
Method in brief: as §2

[20] = 250 g ai/ha, scale 0 to 100 (0 no effect, 100 complete control)

CC1(C)CC(S(=O)(=O)Cc2c(C(F)(F)F)nc3n(c2=O)CCCCC3)=NO1 [Compound 33]
0: Plant response rating, Wheat ([7]; 125 g ai/ha) | Plant response rating, Corn (corn (Zea mays) [8]; 125 g ai/ha) | Plant response rating, Corn (corn (Zea mays) [8]; 500 g ai/ha) | Plant response rating, Velvetleaf ([14]; 125 g ai/ha) | Plant response rating, Wheat ([15]; 125 g ai/ha) | Plant response rating, Corn (corn (Zea mays) [16]; 125 g ai/ha) | Plant response rating, Corn (corn (Zea mays) [16]; 500 g ai/ha) | Plant response rating, Rice (rice (Oryza sativa); 31 g ai/ha) | Plant response rating, Rice (rice (Oryza sativa); 62 g ai/ha) | Plant response rating, Rice (rice (Oryza sativa); 125 g ai/ha) | Plant response rating, Sedge, Umbrella ([17]; 31 g ai/ha) | Plant response rating, Ducksalad ([18]; 31 g ai/ha) | Plant response rating, Ducksalad ([18]; 62 g ai/ha) | Plant response rating, Barnyardgrass ([19]; 31 g ai/ha, scale 0 to 100) | Plant response rating, Barnyardgrass ([19]; 62 g ai/ha, scale 0 to 100) | Plant response rating, Barnyardgrass ([19]; 125 g ai/ha, scale 0 to 100)
50: Plant response rating, Morningglory ([4]; 500 g ai/ha) | Plant response rating, Wheat ([7]; 500 g ai/ha) | Plant response rating, Barnyardgrass ([9]; 125 g ai/ha) | Plant response rating, Crabgrass, Large ([10]; 125 g ai/ha) | Plant response rating, Pigweed ([13]; 500 g ai/ha) | Plant response rating, Ducksalad ([18]; 250 g ai/ha)
90: Plant response rating, Barnyardgrass ([1]; 500 g ai/ha) | Plant response rating, Crabgrass, Large ([2]; 125 g ai/ha) | Plant response rating, Foxtail, Giant ([3]; 125 g ai/ha)
80: Plant response rating, Barnyardgrass ([9]; 500 g ai/ha) | Plant response rating, Crabgrass, Large ([10]; 500 g ai/ha) | Plant response rating, Foxtail, Giant ([11]; 500 g ai/ha) | Plant response rating, Sedge, Umbrella ([17]; 250 g ai/ha)
70: Plant response rating, Foxtail, Giant ([11]; 125 g ai/ha)
30: Plant response rating, Velvetleaf ([6]; 125 g ai/ha)
35: Plant response rating, Barnyardgrass [19, 20]
40: Plant response rating, Barnyardgrass ([1]; 125 g ai/ha) | Plant response rating, Morningglory ([12]; 125 g ai/ha) | Plant response rating, Wheat ([15]; 500 g ai/ha)
100: Plant response rating, Crabgrass, Large ([2]; 500 g ai/ha) | Plant response rating, Foxtail, Giant ([3]; 500 g ai/ha) | Plant response rating, Pigweed ([5]; 500 g ai/ha)
25: Plant response rating, Rice (rice (Oryza sativa); 250 g ai/ha)
10: Plant response rating, Pigweed ([5]; 125 g ai/ha)
20: Plant response rating, Morningglory ([4]; 125 g ai/ha) | Plant response rating, Pigweed ([13]; 125 g ai/ha) | Plant response rating, Velvetleaf ([14]; 500 g ai/ha) | Plant response rating, Sedge, Umbrella ([17]; 62 g ai/ha) | Plant response rating, Ducksalad ([18]; 125 g ai/ha)
60: Plant response rating, Velvetleaf ([6]; 500 g ai/ha) | Plant response rating, Morningglory ([12]; 500 g ai/ha) | Plant response rating, Sedge, Umbrella ([17]; 125 g ai/ha)

CC1(C)CC([S+]([O-])Cc2c(C(F)(F)F)nc3n(c2=O)CCCCC3)=NO1 (stereo not drawn) [Compound 34]
40: Plant response rating, Crabgrass, Large ([10]; 500 g ai/ha) | Plant response rating, Morningglory ([12]; 500 g ai/ha)
90: Plant response rating, Foxtail, Giant ([3]; 500 g ai/ha)
20: Plant response rating, Wheat ([15]; 500 g ai/ha)
80: Plant response rating, Crabgrass, Large ([2]; 500 g ai/ha)
60: Plant response rating, Foxtail, Giant ([11]; 500 g ai/ha)
50: Plant response rating, Wheat ([7]; 500 g ai/ha) | Plant response rating, Barnyardgrass ([9]; 500 g ai/ha)
70: Plant response rating, Barnyardgrass ([1]; 500 g ai/ha)
0: Plant response rating, Barnyardgrass ([1]; 125 g ai/ha) | Plant response rating, Crabgrass, Large ([2]; 125 g ai/ha) | Plant response rating, Foxtail, Giant ([3]; 125 g ai/ha) | Plant response rating, Morningglory ([4]; 125 g ai/ha) | Plant response rating, Morningglory ([4]; 500 g ai/ha) | Plant response rating, Pigweed ([5]; 125 g ai/ha) | Plant response rating, Pigweed ([5]; 500 g ai/ha) | Plant response rating, Velvetleaf ([6]; 125 g ai/ha) | Plant response rating, Velvetleaf ([6]; 500 g ai/ha) | Plant response rating, Wheat ([7]; 125 g ai/ha) | Plant response rating, Corn (corn (Zea mays) [8]; 125 g ai/ha) | Plant response rating, Corn (corn (Zea mays) [8]; 500 g ai/ha) | Plant response rating, Barnyardgrass ([9]; 125 g ai/ha) | Plant response rating, Crabgrass, Large ([10]; 125 g ai/ha) | Plant response rating, Foxtail, Giant ([11]; 125 g ai/ha) | Plant response rating, Pigweed ([13]; 125 g ai/ha) | Plant response rating, Pigweed ([13]; 500 g ai/ha) | Plant response rating, Velvetleaf ([14]; 125 g ai/ha) | Plant response rating, Velvetleaf ([14]; 500 g ai/ha) | Plant response rating, Wheat ([15]; 125 g ai/ha) | Plant response rating, Corn (corn (Zea mays) [16]; 125 g ai/ha) | Plant response rating, Corn (corn (Zea mays) [16]; 500 g ai/ha) | Plant response rating, Rice (rice (Oryza sativa); 31 g ai/ha) | Plant response rating, Rice (rice (Oryza sativa); 62 g ai/ha) | Plant response rating, Rice (rice (Oryza sativa); 125 g ai/ha) | Plant response rating, Rice (rice (Oryza sativa); 250 g ai/ha) | Plant response rating, Sedge, Umbrella ([17]; 31 g ai/ha) | Plant response rating, Sedge, Umbrella ([17]; 62 g ai/ha) | Plant response rating, Sedge, Umbrella ([17]; 125 g ai/ha) | Plant response rating, Sedge, Umbrella ([17]; 250 g ai/ha) | Plant response rating, Ducksalad ([18]; 31 g ai/ha) | Plant response rating, Ducksalad ([18]; 62 g ai/ha) | Plant response rating, Ducksalad ([18]; 125 g ai/ha) | Plant response rating, Ducksalad ([18]; 250 g ai/ha) | Plant response rating, Barnyardgrass ([19]; 31 g ai/ha, scale 0 to 100) | Plant response rating, Barnyardgrass ([19]; 62 g ai/ha, scale 0 to 100) | Plant response rating, Barnyardgrass ([19]; 125 g ai/ha, scale 0 to 100) | Plant response rating, Barnyardgrass [19, 20]
30: Plant response rating, Morningglory ([12]; 125 g ai/ha)
